Results on two compounds are retold here after ChEMBL document CHEMBL5029141, “Three-Dimensional Proteome-Wide Scale Screening for the 5-Alpha Reductase Inhibitor Finasteride: Identification of a Novel Off-Target” (J Med Chem, 2021).

The target of experiment [1] is T1, Phenylethanolamine N-methyltransferase (Homo sapiens) (UniProt P11086).
T1 sequence (whole entry): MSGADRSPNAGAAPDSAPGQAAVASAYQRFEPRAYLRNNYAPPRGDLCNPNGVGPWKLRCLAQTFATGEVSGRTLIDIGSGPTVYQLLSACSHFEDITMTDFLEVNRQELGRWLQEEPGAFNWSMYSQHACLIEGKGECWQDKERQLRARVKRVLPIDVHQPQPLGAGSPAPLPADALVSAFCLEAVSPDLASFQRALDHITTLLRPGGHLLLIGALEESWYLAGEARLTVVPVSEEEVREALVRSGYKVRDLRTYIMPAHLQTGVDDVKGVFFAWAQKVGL
The experiment can be described thus: Inhibition of human recombinant PNMT using AdoMet and DL-norepinephrine hydrocloride as substrate preincubated for 30 mins followed by substrate addition and measured after 30 mins by fluorescence based analysis relative to control. The note with it: time 1.0 hrs.

The subject of experiment [2] is Rattus norvegicus. The experiment can be described thus: In vivo inhibition of PNMT in Sprague-Dawley rat assessed as increase in norepinephrine level in adrenal gland at 1 mg, sc administered once daily for 20 days and measured after 24 hrs post last dose by liquid chromatography tandem mass spectrometry analysis. In kind it is functional, organism-based. The note with it: time 20.0 day.

Experiment [3] has as its system Rattus norvegicus. The experiment can be described thus: In vivo inhibition of PNMT in Sprague-Dawley rat assessed as decrease in epinephrine level in adrenal gland at 1 mg, sc once daily treated for 20 days and measured after 24 hrs post last dose by liquid chromatography tandem mass spectrometry analysis. The conditions noted are these: time 20.0 day. In kind it is functional, organism-based.

The test system of experiment [4] is Rattus norvegicus. The experiment can be described thus: Effect on PNMT protein expression level in Sprague-Dawley rat at 1 mg, sc once daily treated for 20 days and measured after 24 hrs post last dose by western blot analysis. The experiment is classed as functional, organism-based. The conditions noted are these: time 20.0 day.

Activity calls are given as the source filed them. No cut-off for these calls is given here. Bounds are passed on as bounds.

As to `CC(C)(C)NC(=O)[C@H]1CC[C@H]2[C@@H]3CC[C@H]4NC(=O)C=C[C@]4(C)[C@H]3CC[C@]12C`, the inhibition (as a rule, how much of the control response was suppressed) in experiment [1] was over 30%. The result in the experiment with Rattus norvegicus [2] and in the experiment with Rattus norvegicus [3] was Active. Also, the outcome in the experiment on Rattus norvegicus [4] was inactive.
`CC(N)c1cccc(Cl)c1Cl` (stereo not given): in experiment [1], the inhibition came to 60%.
